The values that follow are results of earlier work, collected in patent US12636273B2, “Compositions for pathogenesis-directed therapy and treatments of skin diseases and disorders” (YALE UNIVERSITY, priority 2019, dated 2026).

The series relates to CHILD syndrome skin lesions. Conditions: topical application.

In the case of `CC(C)CCC[C@@H](C)[C@H]1CC[C@H]2[C@@H]3CC=C4C[C@@H](O)CC[C@]4(C)[C@H]3CC[C@]12C` [cholesterol], the “effect on skin lesions / phenotype” value was “did not correct the phenotype”.
